From the supplement of paper PMC10307832

Experiments:
Test in all cases: relative viability (nuclei count vs DMSO), 5 days (fraction); higher = more cells survive
Erlotinib + AZD7762 = compound: C#Cc1cccc(Nc2ncnc3cc(OCCOC)c(OCCOC)cc23)c1 [Erlotinib] + NC(=O)Nc1cc(-c2cccc(F)c2)sc1C(=O)N[C@H]1CCCNC1 [AZD7762] (partner 0.2 µM)
Procedure, shortened: (§1)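 Cells from lung cancer lines were seeded into 1536-well plates and, one day later, dosed by pin tool. Treatments were either a single drug or a fixed dose of an anchor drug with five library-drug doses (not always all listed) in √10 steps. After 5 days, nuclei were stained in a one-step fixation (final 0.05% Triton X-100, 1% formaldehyde, 1 ug/ml Hoechst) and counted on 4× images, and relative viability is the treated-to-vehicle nuclei ratio, as the median of duplicate plates.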

AT9283 + Tozasertib = compound: O=C(Nc1c[nH]nc1-c1nc2ccc(CN3CCOCC3)cc2[nH]1)NC1CC1 [AT9283] + Cc1cc(Nc2cc(N3CCN(C)CC3)nc(Sc3ccc(NC(=O)C4CC4)cc3)n2)n[nH]1 [Tozasertib] (partner 0.1 µM)
Procedure, shortened: as §1

AT9283 + Pemetrexed = compound: O=C(Nc1c[nH]nc1-c1nc2ccc(CN3CCOCC3)cc2[nH]1)NC1CC1 [AT9283] + Nc1nc2[nH]cc(CCc3ccc(C(=O)N[C@@H](CCC(=O)O)C(=O)O)cc3)c2c(=O)[nH]1 [Pemetrexed] (partner 0.2 µM)
Procedure, shortened: as §1

AT9283 + Vorinostat = compound: O=C(Nc1c[nH]nc1-c1nc2ccc(CN3CCOCC3)cc2[nH]1)NC1CC1 [AT9283] + O=C(CCCCCCC(=O)Nc1ccccc1)NO [Vorinostat] (partner 1 µM)
Procedure, shortened: as §1

AT9283 + Olaparib = compound: O=C(Nc1c[nH]nc1-c1nc2ccc(CN3CCOCC3)cc2[nH]1)NC1CC1 [AT9283] + O=C(c1cc(Cc2n[nH]c(=O)c3ccccc23)ccc1F)N1CCN(C(=O)C2CC2)CC1 [Olaparib] (partner 8 µM)
Procedure, shortened: as §1

Row | Cell Line | relative viability (Erlotinib + AZD7762; first compound 0.02 µM) | relative viability (Erlotinib + AZD7762; first compound 0.2 µM) | relative viability (Erlotinib + AZD7762; first compound 0.6325 µM) | relative viability (Erlotinib + AZD7762; first compound 2 µM) | relative viability (AT9283 + Tozasertib; first compound 0.003 µM) | relative viability (AT9283 + Tozasertib; first compound 0.03 µM) | relative viability (AT9283 + Tozasertib; first compound 0.09487 µM) | relative viability (AT9283 + Tozasertib; first compound 0.3 µM) | relative viability (AT9283 + Pemetrexed; first compound 0.003 µM) | relative viability (AT9283 + Pemetrexed; first compound 0.03 µM) | relative viability (AT9283 + Pemetrexed; first compound 0.09487 µM) | relative viability (AT9283 + Pemetrexed; first compound 0.3 µM) | relative viability (AT9283 + Vorinostat; first compound 0.003 µM) | relative viability (AT9283 + Vorinostat; first compound 0.03 µM) | relative viability (AT9283 + Vorinostat; first compound 0.09487 µM) | relative viability (AT9283 + Vorinostat; first compound 0.3 µM) | relative viability (AT9283 + Olaparib; first compound 0.003 µM) | relative viability (AT9283 + Olaparib; first compound 0.03 µM) | relative viability (AT9283 + Olaparib; first compound 0.09487 µM) | relative viability (AT9283 + Olaparib; first compound 0.3 µM)
1 | EPLC-272H | 0.205 | 0.209 | 0.21 | 0.202 | 0.306 | 0.192 | 0.203 | 0.159 | 0.358 | 0.212 | 0.177 | 0.138 | 0.467 | 0.167 | 0.206 | 0.139 | 0.698 | 0.18 | 0.107 | 0.119
2 | NCI-H1355 | 0.794 | 0.687 | 0.674 | 0.682 | 0.518 | 0.464 | 0.224 | 0.218 | 0.989 | 1.02 | 0.719 | 0.301 | 0.602 | 0.452 | 0.388 | 0.169 | 0.803 | 0.708 | 0.329 | 0.246
3 | BEN | 0.554 | 0.824 | 0.843 |  | 0.598 | 0.503 | 0.387 | 0.376 | 0.622 | 0.692 | 0.361 | 0.365 | 0.515 | 0.49 | 0.33 | 0.324 | 0.969 | 0.747 | 0.481 | 0.298
4 | NCI-H1623 |  |  |  |  | 0.411 | 0.408 | 0.357 | 0.389 |  |  |  |  |  |  |  |  |  |  |  | 
5 | NCI-H727 | 0.455 | 0.488 | 0.437 | 0.463 | 0.589 | 0.567 | 0.457 | 0.444 |  |  |  |  | 1.07 | 0.866 | 0.815 | 0.499 | 0.84 | 0.768 | 0.494 | 0.496
6 | NCI-H2342 | 0.453 | 0.566 | 0.502 |  | 0.555 | 0.453 | 0.403 | 0.344 | 0.793 | 0.619 | 0.603 | 0.387 | 0.804 | 0.576 | 0.59 | 0.409 | 0.476 | 0.434 | 0.384 | 0.292
7 | UMC-11 |  |  |  |  | 0.19 | 0.221 | 0.207 | 0.21 | 0.768 | 0.158 | 0.196 | 0.193 | 0.359 | 0.109 | 0.117 | 0.124 | 0.712 | 0.218 | 0.213 | 0.23
8 | IA-LM |  |  |  |  |  |  |  |  |  |  |  |  | 0.927 | 0.624 | 0.144 | 0.111 | 0.998 | 0.524 | 0.243 | 0.145
9 | COR-L 105 |  |  |  |  | 0.384 | 0.318 | 0.283 | 0.288 | 1.08 | 0.699 | 0.341 | 0.422 | 0.839 | 0.343 | 0.383 | 0.321 | 0.625 | 0.408 | 0.37 | 0.325
10 | ABC-1 | 0.789 |  | 0.647 | 0.507 | 0.198 | 0.17 | 0.172 | 0.183 |  |  |  |  | 1.05 | 0.373 | 0.359 | 0.258 | 0.853 | 0.324 | 0.551 | 0.417
11 | NCI-H2228 |  |  |  |  | 0.333 | 0.199 | 0.142 | 0.138 | 0.337 | 0.244 | 0.181 | 0.16 | 0.655 | 0.277 | 0.133 | 0.103 | 0.675 | 0.455 | 0.228 | 0.153
12 | EBC-1 |  |  |  |  |  |  |  |  |  |  |  |  |  |  |  |  | 0.669 | 0.334 | 0.18 | 0.145
13 | COR-L23 |  |  |  |  | 0.278 | 0.135 | 0.112 | 0.132 | 0.213 | 0.165 | 0.137 | 0.137 | 0.443 | 0.119 | 0.0932 | 0.0899 | 0.331 | 0.156 | 0.115 | 0.137
14 | NCI-H1792 | 0.904 | 0.465 | 0.6 | 0.469 |  |  |  |  | 0.783 | 0.945 | 0.805 | 0.167 |  |  |  |  | 0.468 | 0.491 | 0.358 | 0.252
15 | NCI-H520 |  |  |  |  | 0.48 | 0.435 | 0.423 | 0.251 | 0.702 | 0.302 | 0.303 | 0.198 | 0.56 | 0.271 | 0.223 | 0.235 | 0.32 | 0.205 | 0.223 | 0.22
16 | SK-MES-1 |  |  |  |  | 1 | 0.679 | 0.254 | 0.125 | 1.07 | 0.843 | 0.429 | 0.218 | 1.19 | 1.03 | 0.304 | 0.154 | 0.783 | 0.677 | 0.415 | 0.144
17 | NCI-H2023 |  |  |  |  | 0.388 | 0.232 | 0.19 | 0.18 | 0.214 | 0.199 | 0.126 | 0.102 | 0.527 | 0.344 | 0.149 | 0.144 | 0.511 | 0.409 | 0.21 | 0.0856
18 | SK-LU-1 |  |  |  |  | 0.359 | 0.301 | 0.253 | 0.267 | 1.16 | 0.663 | 0.396 | 0.391 | 0.904 | 0.418 | 0.329 | 0.314 | 0.495 | 0.479 | 0.259 | 0.258
19 | NCI-H661 |  |  |  |  | 0.347 | 0.344 | 0.389 | 0.37 | 0.932 | 0.449 | 0.405 | 0.385 | 0.858 | 0.359 | 0.316 | 0.384 | 0.759 | 0.499 | 0.371 | 0.418
20 | A549 |  |  |  |  |  |  |  |  |  |  |  |  |  |  |  |  | 0.358 | 0.0601 | 0.0514 | 0.069
21 | NCI-H1703 | 0.113 | 0.133 | 0.142 | 0.115 |  |  |  |  |  |  |  |  |  |  |  |  | 0.383 | 0.155 | 0.169 | 0.229
22 | NCI-H2009 |  |  |  |  | 0.737 | 0.514 | 0.399 | 0.226 | 1.03 | 0.983 | 0.713 | 0.243 | 0.742 | 0.674 | 0.29 | 0.147 | 0.716 | 0.636 | 0.458 | 0.0682
